Test results from BindingDB's records for doi:10.1021/acsmedchemlett.8b00576 (Usona Institute, 2019).

Target: GTPase KRas (Homo sapiens, UniProt P01116)
Experiment: Inhibition of GDP loaded biotin-labeled KRAS G12C mutant (unknown origin) assessed as reduction in guanine nucleotide exchange preincubated for 4 hrs followed by GST-RAF-RBD addition in presence of GTPgammaS by FRET assay

Chain of GTPase KRas (P01116 whole entry G12C): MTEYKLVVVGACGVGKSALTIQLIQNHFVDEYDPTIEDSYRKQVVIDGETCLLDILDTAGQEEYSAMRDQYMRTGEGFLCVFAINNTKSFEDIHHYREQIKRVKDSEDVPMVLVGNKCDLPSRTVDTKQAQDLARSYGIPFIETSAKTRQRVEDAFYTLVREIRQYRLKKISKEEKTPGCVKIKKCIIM

IC50: 0.021 µM
SMILES: C=CC(=O)N1CCN2c3nc(N4CC(N(C)C)C4)nc4cc(-c5c(C)ccc6[nH]ncc56)c(Cl)c(c34)OC[C@@H]2C1
